Results from PubChem BioAssay (NCI).
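Test compounds were applied to cells in 96-well plates for 48 hours at 5 doses. Here, GI50 denotes the concentration required for 50% inhibition of growth. The concentration for full growth arrest is given as TGI.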

Columns and labels:
Assay in all cases: NCI tumour cell line growth inhibition, 48 h
PC-3 prostate = system: PC-3 prostate
EKVX NSCLC = system: EKVX NSCLC
BT-549 breast = system: BT-549 breast
MALME-3M melanoma = system: MALME-3M melanoma
HCT-116 colon = system: HCT-116 colon
SF-295 CNS = system: SF-295 CNS
TK-10 renal = system: TK-10 renal
M14 melanoma = system: M14 melanoma

Row | Compound | GI50 (PC-3 prostate) | TGI (PC-3 prostate) | GI50 (EKVX NSCLC) | TGI (EKVX NSCLC) | GI50 (BT-549 breast) | TGI (BT-549 breast) | GI50 (MALME-3M melanoma) | TGI (MALME-3M melanoma) | GI50 (HCT-116 colon) | TGI (HCT-116 colon) | GI50 (SF-295 CNS) | TGI (SF-295 CNS) | GI50 (TK-10 renal) | TGI (TK-10 renal) | GI50 (M14 melanoma) | TGI (M14 melanoma)
1 | CC(=O)c1cc(C(=O)c2ccc3c(c2)Sc2ccccc2N3)c2c(C)cccn12 | 321 nM | > 100 µM | 476 nM | > 100 µM | 777 nM | 23.8 µM | 13600 nM | > 100 µM | 270 nM | 10.5 µM | 188 nM | 15.8 µM | 4730 nM | > 100 µM | 198 nM | 5.5 µM
2 | COc1cc(/C=C/c2cc(/C=C/c3ccc(O)c(OC)c3)n(C(=O)Nc3ccc(Cl)cc3)n2)ccc1O | 497 nM | 5.78 µM | 1610 nM | 9.62 µM | 885 nM | 3.51 µM | 760 nM | 3.96 µM | 354 nM | 2.54 µM | 1500 nM | 7.86 µM | 966 nM | 6.18 µM | 370 nM | 1.4 µM
3 | C=C1C(=O)O[C@H]2[C@H]1CC/C(COC(=O)NCCc1c[nH]c3ccc(Cl)cc13)=C\CC[C@@]1(C)O[C@@H]21 | 1720 nM | 3.35 µM | 1730 nM | 3.53 µM | 1440 nM | 2.99 µM | 1780 nM | 3.44 µM | 1560 nM | 2.97 µM | 6530 nM | 20.3 µM | 1590 nM | 2.97 µM | 1610 nM | 3.13 µM
4 | Cc1cc(Cl)ccc1Nc1nc(C(F)(F)F)ccc1C(=O)N/N=C/c1ccccc1Cl | 866 nM | > 26 µM | 894 nM | 7.23 µM | 1120 nM | 5.75 µM | 1540 nM | 6.18 µM | 439 nM | 3.18 µM | 691 nM | 4.12 µM | 1000 nM | 16.1 µM | 874 nM | 7.83 µM
5 | CN(C)c1ccc(/C=c2/c3ccccc3n3c2c2cc(F)ccc2[n+]3C)cc1 | 5720 nM | 19.9 µM | 4290 nM | 20.1 µM | 2650 nM | 13.1 µM | 1870 nM | 7.54 µM | 4780 nM | > 100 µM | 6310 nM | 19.6 µM | 3830 nM | 14.7 µM | 4020 nM | 22.9 µM
6 | CC12CCC3c4cc(Br)c(O)c(Br)c4CCC3C1CCC2O (configuration not stated) | – | > 100 µM | – | 45.4 µM | – | 30.2 µM | – | 30.8 µM | – | > 100 µM | – | 33.4 µM | – | 43.1 µM | – | > 100 µM
7 | CC1=C[C@H]2C[C@H](C)[C@H]3CC[C@H](C)[C@]4(C1)C(=O)C(O)=C(C)C(=O)[C@@]324 | 18400 nM | 56 µM | 42900 nM | > 100 µM | 46000 nM | > 100 µM | 23300 nM | 80.7 µM | 19500 nM | 41.8 µM | > 100000 nM | > 100 µM | 47400 nM | > 100 µM | 29700 nM | > 100 µM
8 | COc1cccc(/C(C)=N/NC(=O)CSc2nc3ccccc3c(=O)n2CCc2ccc(S(N)(=O)=O)cc2)c1 | 3510 nM | 22.2 µM | 5810 nM | 33.9 µM | 2270 nM | 40.9 µM | 1980 nM | 4.62 µM | – | – | 4020 nM | 16.3 µM | 2360 nM | 5.42 µM | 2580 nM | 73 µM
9 | O=C(Nc1ccccc1O)c1ccc(NS(=O)(=O)c2cccc3cccnc23)cc1 | 1460 nM | 8.25 µM | – | – | 2790 nM | 7.94 µM | 827 nM | > 25 µM | 752 nM | 3.1 µM | 1090 nM | 4.77 µM | 704 nM | 3.45 µM | 1180 nM | 5.61 µM
10 | O=C(/C=C/C12c3ccccc3C(c3ccccc31)C1C(=O)NC(=O)C12)c1ccc(Cl)cc1 (configuration not stated) | 1390 nM | 2.78 µM | 1430 nM | 2.87 µM | 1340 nM | 2.69 µM | 1510 nM | 2.88 µM | 1230 nM | 2.61 µM | – | – | 1920 nM | 3.52 µM | 1650 nM | 3.29 µM
11 | COc1cc(NCCN=C(N)NC(N)=NC(C)C)c2ncccc2c1 | 8960 nM | > 100 µM | – | – | 9660 nM | 29.4 µM | 1600 nM | 6.71 µM | 3630 nM | > 100 µM | > 90900 nM | > 100 µM | 11300 nM | 69.9 µM | 22600 nM | > 100 µM
12 | C=C(C)C(=O)O[C@@H]1C/C(C)=C\[C@H](OC(C)=O)C[C@](C)(O)/C=C2/OC(=O)C(COC(C)=O)=C21 | – | 3.63 µM | – | 2.07 µM | – | 3.91 µM | – | 0.979 µM | – | 1.7 µM | – | 23.9 µM | – | 3.7 µM | – | –
